Measured values taken from patent US9682925B2, “Cyclopropaneamine compound” (TAKEDA PHARMACEUTICAL COMPANY LIMITED, priority 2011, dated 2017).
pIC50: −log10 of the molar value. Where a name gives a salt, the structure may show the parent alone.

What was measured:
Assay type in all cases: biochemical
[1] = target: T1, MAO-A (Homo sapiens, UniProt P21397); assay: Measurement of MAO-A inhibitory activity (MAO-Glo Assay)
T1 construct: purchased Sigma-Aldrich Co. LLC
T1 sequence (P21397 1-527): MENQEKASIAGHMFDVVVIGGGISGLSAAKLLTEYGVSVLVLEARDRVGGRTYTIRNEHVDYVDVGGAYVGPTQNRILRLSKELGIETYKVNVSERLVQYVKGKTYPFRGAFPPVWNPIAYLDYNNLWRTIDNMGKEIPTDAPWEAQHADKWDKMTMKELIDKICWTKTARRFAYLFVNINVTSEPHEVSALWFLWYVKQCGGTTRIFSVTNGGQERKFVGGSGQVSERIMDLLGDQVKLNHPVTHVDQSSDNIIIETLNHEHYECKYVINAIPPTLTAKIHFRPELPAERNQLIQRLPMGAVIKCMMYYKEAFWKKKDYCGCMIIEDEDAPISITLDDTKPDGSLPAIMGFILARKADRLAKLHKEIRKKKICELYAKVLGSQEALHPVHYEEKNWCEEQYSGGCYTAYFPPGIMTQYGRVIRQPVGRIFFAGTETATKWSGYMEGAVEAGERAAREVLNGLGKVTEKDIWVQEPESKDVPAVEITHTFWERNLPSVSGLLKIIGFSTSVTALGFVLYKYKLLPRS
Outline: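 MAO-A (400 ng) was pre-incubated with compound 10 min at room temperature in 100 mM HEPES pH 7.5, 5% glycerol, then MAO substrate (160 μM stock) added for 60 min. Luciferin detection reagent, 20 min, luminescence; % inhibition against no-compound control minus no-enzyme blank.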

[2] = target: T2, human LSD1(171-852) (Homo sapiens, UniProt O60341); assay: Measurement of LSD1 inhibitory activity (time-resolved fluorescence, biotin-histone H3 mono methylated K4 peptide); conditions: read-out: LSD1 IC50 value
T2 construct: to give hLSD1(171-852) purified product; made in house; host or cells: Escherichia coli C43(DE3) pLysS

[3] = target: T3, MAO-B (Homo sapiens, UniProt P27338); assay: Measurement of MAO-B inhibitory activity (MAO-Glo Assay)
T3 construct: purchased Sigma-Aldrich Co. LLC
T3 sequence (P27338 1-520): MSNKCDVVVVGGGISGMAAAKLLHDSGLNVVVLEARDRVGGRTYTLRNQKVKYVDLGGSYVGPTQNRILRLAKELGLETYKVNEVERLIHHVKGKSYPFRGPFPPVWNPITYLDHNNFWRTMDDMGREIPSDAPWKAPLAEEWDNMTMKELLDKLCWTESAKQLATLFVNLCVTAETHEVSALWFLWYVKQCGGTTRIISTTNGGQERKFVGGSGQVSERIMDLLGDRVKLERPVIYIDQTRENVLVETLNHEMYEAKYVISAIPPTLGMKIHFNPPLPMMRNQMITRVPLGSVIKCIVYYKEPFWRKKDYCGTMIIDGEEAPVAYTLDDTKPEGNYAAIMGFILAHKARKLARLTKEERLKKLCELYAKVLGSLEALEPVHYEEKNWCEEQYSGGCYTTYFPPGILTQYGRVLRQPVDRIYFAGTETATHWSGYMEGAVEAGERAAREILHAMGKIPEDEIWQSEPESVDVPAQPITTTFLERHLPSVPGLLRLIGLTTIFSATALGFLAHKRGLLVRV
Outline: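 Percent inhibition was calculated from luciferin-based luminescence, corrected with a blank lacking enzyme and a control lacking compound. The reaction ran 60 min at room temperature after adding MAO substrate (16 µM as added). This followed a 10 min compound–enzyme preincubation in HEPES pH 7.5 buffer.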

Row | pIC50 [1] | pIC50 [2] | pIC50 [3] | SMILES
1 | < 5.00 | > 7.00 | < 5.00 | O=C(Nc1ccc([C@@H]2C[C@H]2NCC2CC2)cc1)c1ccc2cc[nH]c2c1 (relative stereo) [Example 115, N-(4-{trans-2-[(cyclopropylmethyl)amino]cyclopropyl}-phenyl)-1H-indole-6-carboxamide]
2 | < 5.00 | 5.74 | < 5.00 | CCCc1ccc(-c2ccc(C(=O)Nc3ccc([C@@H]4C[C@H]4NCC4CC4)cc3)cc2)cc1 (relative stereo) [Example 116, N-(4-{trans-2-[(cyclopropylmethyl)amino]cyclopropyl}-phenyl)-4′-propylbiphenyl-4-carboxamide]
3 | 5.12 | > 7.00 | < 5.00 | O=C(Nc1ccc([C@@H]2C[C@H]2NCC2CC2)cc1)c1ccc(-n2cccc2)cc1 (relative stereo) [Example 117, N-(4-{trans-2-[(cyclopropylmethyl)amino]cyclopropyl}-phenyl)-4-(1H-pyrrol-1-yl)benzamide]
4 | < 5.00 | 7.00 | < 5.00 | Cc1ccc(-c2ccc(C(=O)Nc3ccc([C@@H]4C[C@H]4NCC4CC4)cc3)cc2)cc1 (relative stereo) [Example 118, N-(4-{trans-2-[(cyclopropylmethyl)amino]cyclopropyl}-phenyl)-4′-methylbiphenyl-4-carboxamide]
5 | 7.00 | > 7.00 | < 5.00 | O=C(Nc1ccc([C@@H]2C[C@H]2NCC2CC2)cc1)c1ccc(-c2csnn2)cc1 (relative stereo) [Example 119, N-(4-{trans-2-[(cyclopropylmethyl)amino]cyclopropyl}-phenyl)-4-(1,2,3-thiadiazol-4-yl)benzamide]
6 | < 5.00 | 5.80 | < 5.00 | CC(C)(C)c1ccc(-c2ccc(C(=O)Nc3ccc([C@@H]4C[C@H]4NCC4CC4)cc3)cc2)cc1 (relative stereo) [Example 120, 4′-tert-butyl-N-(4-{trans-2-[(cyclopropylmethyl)amino]cyclopropyl}-phenyl)biphenyl-4-carboxamide]
7 | < 5.00 | > 7.00 | < 5.00 | Cc1c(C(=O)Nc2ccc([C@@H]3C[C@H]3NCC3CC3)cc2)cnn1-c1ccccc1 (relative stereo) [Example 121, N-(4-{trans-2-[(cyclopropylmethyl)amino]cyclopropyl}-phenyl)-5-methyl-1-phenyl-1H-pyrazole-4-carboxamide]
8 | < 5.00 | > 7.00 | < 5.00 | Cc1oc(-c2ccccc2)nc1C(=O)Nc1ccc([C@@H]2C[C@H]2NCC2CC2)cc1 (relative stereo) [Example 122, N-(4-{trans-2-[(cyclopropylmethyl)amino]cyclopropyl}-phenyl)-5-methyl-2-phenyl-1,3-oxazole-4-carboxamide]
9 | 5.30 | > 7.00 | < 5.00 | O=C(Nc1ccc([C@@H]2C[C@H]2NCC2CC2)cc1)c1ccc(-c2ccccc2)o1 (relative stereo) [Example 123, N-(4-{trans-2-[(cyclopropyl-methyl)amino]cyclo-propyl}phenyl)-5-phenyl-2-furamide]
10 | < 5.00 | > 7.00 | < 5.00 | O=C(Nc1ccc([C@@H]2C[C@H]2NCC2CC2)cc1)c1cnn(-c2ccccc2)c1 (relative stereo) [Example 124, N-(4-{trans-2-[(cyclopropyl-methyl)amino]cyclo-propyl}phenyl)-1-phenyl-1H-pyrazole-4-carboxamide]
11 | 5.60 | > 7.00 | < 5.00 | O=C(Nc1ccc([C@@H]2C[C@H]2NCC2CC2)cc1)c1nc(-c2ccccc2)cs1 (relative stereo) [Example 125, N-(4-{trans-2-[(cyclopropyl-methyl)amino]cyclo-propyl}phenyl)-4-phenyl-1,3-thiazole-2-carboxamide]
12 | < 5.00 | > 7.00 | < 5.00 | O=C(Nc1ccc([C@@H]2C[C@H]2NCC2CC2)cc1)c1cc(-c2ccccc2)[nH]n1 (relative stereo) [Example 126, N-(4-{trans-2-[(cyclopropyl-methyl)amino]cyclo-propyl}phenyl)-5-phenyl-1H-pyrazole-3-carboxamide]
13 | < 5.00 | 7.00 | < 5.00 | O=C(Nc1ccc([C@@H]2C[C@H]2NCC2CC2)cc1)c1c[nH]c2ccccc12 (relative stereo) [Example 127, N-(4-{trans-2-[(cyclopropyl-methyl)amino]cyclo-propyl}phenyl)-1H-indole-3-carboxamide]
14 | 5.28 | > 7.00 | < 5.00 | O=C(Nc1ccc([C@@H]2C[C@H]2NCC2CC2)cc1)c1n[nH]c2ccccc12 (relative stereo) [Example 128, N-(4-{trans-2-[(cyclopropyl-methyl)amino]cyclo-propyl}phenyl)-1H-indazole-3-carboxamide]
15 | 5.09 | > 7.00 | < 5.00 | O=C(Nc1ccc([C@@H]2C[C@H]2NCC2CC2)cc1)c1cc2ccccc2o1 (relative stereo) [Example 129, N-(4-{trans-2-[(cyclopropyl-methyl)amino]cyclo-propyl}phenyl)-1-benzofuran-2-carboxamide]
16 | < 5.00 | > 7.00 | < 5.00 | CN1CCN(c2ccc(C(=O)Nc3ccc([C@@H]4C[C@H]4NCC4CC4)cc3)cc2)CC1 (relative stereo) [Example 130, N-(4-{trans-2-[(cyclopropyl-methyl)amino]cyclo-propyl}phenyl)-4-(4-methylpiperazin-1-yl)benzamide]
17 | < 5.00 | > 7.00 | < 5.00 | CN1CCN(c2cccc(C(=O)Nc3ccc([C@@H]4C[C@H]4NCC4CC4)cc3)c2)CC1 (relative stereo) [Example 131, N-(4-{trans-2-[(cyclopropyl-methyl)amino]-cyclopropyl}-phenyl)-3-(4-methylpiperazin-l-yl)benzamide]
18 | 5.08 | > 7.00 | < 5.00 | O=C(Nc1ccc([C@@H]2C[C@H]2NCC2CC2)cc1)c1ccc(-c2cccnc2)cc1 (relative stereo) [Example 132, N-(4-{trans-2-[(cyclopropyl-methyl)amino]-cyclopropyl}-phenyl)-4-(pyridin-3-yl)benzamide]
19 | < 5.00 | > 7.00 | < 5.00 | O=C(Nc1ccc([C@@H]2C[C@H]2NCC2CC2)cc1)c1cc(-c2ccccc2)no1 (relative stereo) [Example 133, N-(4-{trans-2-[(cyclopropyl-methyl)amino]-cyclopropyl}-phenyl)-3-phenyl-1,2-oxazole-5-carboxamide]
20 | < 5.00 | > 7.00 | < 5.00 | CC(=O)N1CCCc2ccc(C(=O)Nc3ccc([C@@H]4C[C@H]4NCC4CC4)cc3)cc2C1 (relative stereo) [Example 134, 2-acetyl-N-(4-{trans-2-[(cyclopropyl-methyl)amino]-cyclopropyl}-phenyl)-2,3,4,5-tetrahydro-1H-2-benzazepine-8-carboxamide]
21 | < 5.00 | 7.00 | < 5.00 | CS(=O)(=O)Nc1ccc(C(=O)Nc2ccc([C@@H]3C[C@H]3NCC3CC3)cc2)cc1 (relative stereo) [Example 135, N-(4-{trans-2-[(cyclopropylmethyl)amino]cyclopropyl}phenyl)-4-[(methylsulfonyl)amino]benzamide hydrochloride]
22 | < 5.00 | > 7.00 | < 5.00 | CS(=O)(=O)Nc1cccc(C(=O)Nc2ccc([C@@H]3C[C@H]3NCC3CC3)cc2)c1 (relative stereo) [Example 136, N-(4-{trans-2-[(cyclopropylmethyl)amino]cyclopropyl}phenyl)-3-[(methylsulfonyl)amino]benzamide hydrochloride]
